Experimental findings from patent US20010055573A1, “Delivery systems for active ingredients including sunscreen actives and methods of making same” (Shamrock Technologies, priority 1999, published 2001) are described below.

This data set can be described thus: Solubility of the sunscreen active in the preferred non-polar solvents. The following applies: ethylferulate by itself, without lubricating wax as cosolvent. The data set is classed as physicochemical. From the text:
Thus, this embodiment of the present invention solves a significant problem which the prior art has heretofore been unable to overcome without emulsification, namely, the poor solubility of ethylferulate and other polar solid organic sunscreen actives in non-polar solvents, which causes difficulties in formulating sunscreen products in non-emulsified systems.

On to `CCOC(=O)/C=C/c1ccc(O)c(OC)c1` [ethylferulate, ethyl ester of ferulic acid], for which the “solubility in the preferred solvents” value was “not soluble to any significant extent”.
